According to ChEMBL document CHEMBL1136165, “Carbonic anhydrase activators. The selective serotonin reuptake inhibitors fluoxetine, sertraline and citalopram are strong activators of isozymes I and II” (Bioorg Med Chem Lett, 2003):

How the values were obtained:
[1] = target: Carbonic anhydrase 1 (Homo sapiens) (UniProt P00915); assay: Maximal activatory effect against human carbonic anhydrase I (hCA I) at a concentration of 1 uM
[2] = target: Carbonic anhydrase 1 (Homo sapiens) (UniProt P00915); assay: Maximal activatory effect against human carbonic anhydrase I (hCA I)
[3] = target: Carbonic anhydrase 1 (Homo sapiens) (UniProt P00915); assay: Maximal activatory effect against human carbonic anhydrase I (hCA I) at a concentration of 1 mM
[4] = target: Carbonic anhydrase 2 (Homo sapiens) (UniProt P00918); assay: Maximal activatory effect against human carbonic anhydrase II (hCA II)

Sequence of Carbonic anhydrase 1 (Homo sapiens) (P00915 2-261 limits assumed): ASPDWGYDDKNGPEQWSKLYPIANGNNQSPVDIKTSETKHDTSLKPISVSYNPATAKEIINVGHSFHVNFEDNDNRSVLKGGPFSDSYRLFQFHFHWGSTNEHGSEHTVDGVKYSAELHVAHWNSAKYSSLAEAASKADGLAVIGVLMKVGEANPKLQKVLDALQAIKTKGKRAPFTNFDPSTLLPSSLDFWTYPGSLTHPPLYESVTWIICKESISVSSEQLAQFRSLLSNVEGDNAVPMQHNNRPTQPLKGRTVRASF

Question: Which Activity [1] does the source give for `CN(C)CCCC1(c2ccc(F)cc2)OCc2cc(C#N)ccc21` (stereo not given) here?
Answer: 134%

Question: What about the Activity [2] of the same molecule?
Answer: 148%

Question: For `CN[C@H]1CC[C@@H](c2ccc(Cl)c(Cl)c2)c2ccccc21`, which Activity [1] is on record?
Answer: 145%

Question: What about the Activity [2] of the same molecule?
Answer: 165%

Question: How did the Activity [1] turn out when `NCCc1c[nH]cn1` was run?
Answer: 165%

Question: And the Activity [3]?
Answer: 185%

Question: `CNCCC(Oc1ccc(C(F)(F)F)cc1)c1ccccc1` (stereo not given) was tested. Which Activity [1] did it give?
Answer: 175%

Question: And the Activity [3]?
Answer: 210%

Question: What does the source list for `N[C@@H](Cc1ccccc1)C(=O)O`?
Answer: Activity [2]: 160%; Activity [4]: 210%
